Assay results as given in patent publication US7776917B2, “Non-standard amino acid conjugates of amphetamine and processes for making and using the same” (priority 2006, dated 2010).
Read-outs that look alike come from different tables or passages of the source.

What was measured:
[1] = Oral PK study Lys-Amp, hArg-Amp, Orn-Amp, Cit-Amp (Example 9); settings: in words
[2] = Intravenous PK study d-amphetamine, hArg-Amp, Orn-Amp (Example 11); settings: […] equivalent, n=5, d-amphetamine in plasma
[3] = Intranasal PK study d-amphetamine, hArg-Amp, Orn-Amp (Example 10); settings: […] equivalent, n=5, d-amphetamine in plasma, given in minutes
[4] = Average results of 4 oral PK studies, Lys-Amp vs hArg-Amp (Example 7); settings: average of 4 oral studies, n=20; Lys-Amp = 100%
[5] = oral; hArg-Amp = 100%
[6] = Parenteral (intranasal, intravenous) administration of hArg-Amp, release of amphetamine (Example 1); settings: parenteral routes (intranasal, intravenous)

## l-citrulline-d-amphetamine hydrochloride [Cit-Amp]
[1]
  Tmax compared to Lys-Amp: significantly shifted the Tmax

## C[C@H](N)Cc1ccccc1 [d-amp, d-amphetamine]
[2]
  Tmax: 15 m
[3]
  Tmax: 15 m

## l-lysine-d-amphetamine [Lys-Amp]
[4]
  % Tmax: 100%

## C[C@@H](Cc1ccccc1)NC(=O)[C@@H](N)CCCCN=C(N)N.Cl.Cl [hArg-Amp, l-homoarginine-d-amphetamine Dihydrochloride]
[5]
  % Tmax: 100%
[6]
  release of amphetamine: < 50%
